Assay results taken from patent US6620828B2, “Thiazole compounds and pharmaceutical compositions for inhibiting protein kinases and methods for their use” (Agouron Pharmaceuticals, Inc., priority 1999, dated 2003).

Legend:
Type in all cases: biochemical
[1] = target: T1, unphosphorylated VEGF-R2Δ50 (FLVK) (Homo sapiens, UniProt P35968, DEL940-989/E990V); assay: VEGF-R2 coupled spectrophotometric assay, unphosphorylated enzyme (FLVK); details: Table 3; for inhibition at 0.05 µM: at 50 nM; for Ki: some entries 'Slow binder'
T1 construct: VEGF-R2Δ50 contains residues 806-939 and 990-1171; made in house; host or cells: baculovirus/insect cells
T1 sequence (P35968 with tags, fused parts or gaps DEL940-989/E990V limits assumed): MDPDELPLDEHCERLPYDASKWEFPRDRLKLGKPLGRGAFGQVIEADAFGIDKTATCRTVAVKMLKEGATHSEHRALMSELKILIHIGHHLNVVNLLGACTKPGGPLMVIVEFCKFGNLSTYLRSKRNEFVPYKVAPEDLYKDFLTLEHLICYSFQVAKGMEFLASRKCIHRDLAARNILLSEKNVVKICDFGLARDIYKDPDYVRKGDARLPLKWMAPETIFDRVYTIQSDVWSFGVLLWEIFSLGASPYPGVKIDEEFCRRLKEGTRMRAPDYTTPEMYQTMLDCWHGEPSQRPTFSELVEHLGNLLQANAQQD
Source text: VEGF-R2 Construct for Assay: This construct determines the ability of a test compound to inhibit tyrosine kinase activity. A construct (VEGF-R2Δ50) of the cytosolic domain of human vascular endothelial growth factor receptor 2 (VEGF-R2) lacking the 50 central residues of the 68 residues of the kinase insert domain was expressed in a baculovirus/insect cell system. Of the 1356 residues of full-length VEGF-R2, VEGF-R2Δ50 contains residues 806-939 and 990-1171, and also one point mutation (E990V) within the kinase insert domain relative to wild-type VEGF-R2. Autophosphorylation of the purified construct was performed by incubation of the enzyme at a concentration of 4 μM in the presence of 3 mM ATP and 40 mM MgCl2 in 100 mM Hepes, pH 7.5, containing 5% glycerol and 5 mM DTT, at 4° C. for 2 h. […] See Parast et al., Biochemistry, 37, 16788-16801 (1998).
The production of ADP from ATP that accompanies phosphoryl transfer was coupled to oxidation of NADH using phosphoenolpyruvate (PEP) and a system having pyruvate kinase (PK) and lactic dehydrogenase (LDH). The oxidation of NADH was monitored by following the decrease of absorbance at 340 nm (e340=6.22 cm^−1 mM^−1) using a Beckman DU 650 spectrophotometer. Assay conditions for phosphorylated VEGF-R2Δ50 (indicated as FLVK-P in the tables below) were the following: 1 mM PEP; 250 μM NADH; 50 units of LDH/mL; 20 units of PK/mL; 5 mM DTT; 5.1 mM poly(E4Y1); 1 mM ATP; and 25 mM MgCl2 in 200 mM Hepes, pH 7.5. Assay conditions for unphosphorylated VEGF-R2Δ50 (indicated as FLVK in the tables) were the following: 1 mM PEP; 250 μM NADH; 50 units of LDH/mL; 20 units of PK/mL; 5 mM DTT; 20 mM poly(E4Y1); 3 mM ATP; and 60 mM MgCl2 and 2 mM MnCl2 in 200 mM Hepes, pH 7.5. Assays were initiated with 5 to 40 nM of enzyme. Ki values were determined by measuring enzyme activity in the presence of varying concentrations of test compounds. The data were analyzed using Enzyme Kinetic and Kaleidagraph software.

CDK4/Cyclin D3 complex = target: T2, CDK4/Cyclin D3 complex (Homo sapiens, UniProt P11802); assay: CDK4/Cyclin D assay; details: 1.0 μM; combinatorial library compounds
T2 construct: made in house; host or cells: insect cells co-infected with baculovirus vectors
T2 sequence (P11802 whole entry): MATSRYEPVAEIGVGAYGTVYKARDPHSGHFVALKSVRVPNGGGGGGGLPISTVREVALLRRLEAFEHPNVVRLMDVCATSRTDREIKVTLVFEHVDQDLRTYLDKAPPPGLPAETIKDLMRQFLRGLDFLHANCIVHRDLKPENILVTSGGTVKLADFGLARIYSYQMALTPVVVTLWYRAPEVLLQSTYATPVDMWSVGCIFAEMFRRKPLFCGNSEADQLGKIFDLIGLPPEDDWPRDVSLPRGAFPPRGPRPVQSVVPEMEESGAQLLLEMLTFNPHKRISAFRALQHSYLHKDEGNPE
T2 sequence (P30281 whole entry partner): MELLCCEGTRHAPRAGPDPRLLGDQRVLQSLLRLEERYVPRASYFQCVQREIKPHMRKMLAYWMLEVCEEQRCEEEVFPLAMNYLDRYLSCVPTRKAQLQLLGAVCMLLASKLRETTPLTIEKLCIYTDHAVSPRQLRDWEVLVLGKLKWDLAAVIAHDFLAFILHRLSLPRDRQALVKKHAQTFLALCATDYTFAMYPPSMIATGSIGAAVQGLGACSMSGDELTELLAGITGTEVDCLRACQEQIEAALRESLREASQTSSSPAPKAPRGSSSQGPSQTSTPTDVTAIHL
Procedure, shortened: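 Insect-cell-expressed CDK4/cyclin D3 (50 nM) phosphorylating His-tagged Rb fragment (residues 386-928) with 25 μM [^32P]ATP in HEPES pH 7.4, MgCl2, 2% DMSO; 20 min at 30 °C, EDTA stop. Filter-captured 32P by phosphorimager; apparent Ki from competitive or tight-binding inhibition fits.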

CDK2/Cyclin A complex = CDK2/Cyclin A complex (Homo sapiens, UniProt P24941); assay: CDK2/Cyclin A assay; details: 1.0 μM; combinatorial library compounds
Procedure, shortened: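 Radiometric assay: 150 nM CDK2/cyclin A (insect-cell CDK2, truncated cyclin A) phosphorylates His-tagged Rb fragment (residues 386-928) with 25 μM ATP plus [32P]ATP, pH 7.4 HEPES, 2% DMSO, 30 °C for 20 min. Filter-captured product counted by phosphorimager; apparent Ki from competitive or tight-binding inhibition fits.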

[2] = target: T3, phosphorylated VEGF-R2Δ50 (FLVK-P) (Homo sapiens, UniProt P35968, DEL940-989/E990V); assay: VEGF-R2 coupled spectrophotometric (FLVK-P) assay; details: combinatorial library compounds; for inhibition at 20 µM: read-out: VEGF % inhibition at 20 μM, 20 μM
T3 construct: VEGF-R2Δ50 contains residues 806-939 and 990-1171; made in house; host or cells: baculovirus/insect cells
T3 sequence (P35968 with tags, fused parts or gaps DEL940-989/E990V limits assumed): as the sequence (P35968 with tags, fused parts or gaps DEL940-989/E990V limits assumed) above
Procedure, shortened: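 Baculovirus-expressed human VEGF-R2Δ50 (residues 806-939/990-1171, E990V) was autophosphorylated with 3 mM ATP, 40 mM MgCl2 for 2 h at 4° C. ADP formation was coupled via PK/LDH to NADH oxidation, read at 340 nm, with 5.1 mM poly(E4Y1), 1 mM ATP, 25 mM MgCl2, Hepes pH 7.5. Ki came from activity across compound concentrations.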

FL-CHK1 = target: T4, FL-CHK1 (Homo sapiens, UniProt O14757); assay: CHK1 assay; details: 20 μM; combinatorial library compounds
T4 construct: C-terminally His-tagged full-length human CHK1 (FL-CHK1); 6xHis (C); made in house; host or cells: baculovirus/insect cells
T4 sequence (O14757 1-476): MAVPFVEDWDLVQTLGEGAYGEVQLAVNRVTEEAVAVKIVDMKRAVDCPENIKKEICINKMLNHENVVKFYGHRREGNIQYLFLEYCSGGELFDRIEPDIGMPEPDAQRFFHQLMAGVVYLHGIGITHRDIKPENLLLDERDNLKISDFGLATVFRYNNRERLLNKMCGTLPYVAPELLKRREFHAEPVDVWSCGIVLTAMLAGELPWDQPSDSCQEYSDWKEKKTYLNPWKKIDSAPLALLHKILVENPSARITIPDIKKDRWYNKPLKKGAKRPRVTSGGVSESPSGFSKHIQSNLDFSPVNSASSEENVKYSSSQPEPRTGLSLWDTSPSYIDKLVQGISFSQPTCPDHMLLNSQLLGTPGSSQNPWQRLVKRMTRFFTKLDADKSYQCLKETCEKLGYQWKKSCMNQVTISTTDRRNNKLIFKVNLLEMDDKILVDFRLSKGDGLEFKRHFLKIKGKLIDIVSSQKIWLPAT
Procedure, shortened: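 Full-length human CHK1 with C-terminal 6×His tag, made in baculovirus/insect cells, 10 nM, phosphorylating 0.125 mM Syntide-2 with 0.15 mM ATP in 50 mM Tris pH 7.5, 25 mM MgCl2, 400 mM NaCl. PK/LDH-coupled NADH oxidation read at 340 nm. Ki from initial rates over varied compound concentrations.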

SMILES | inhibition at 1 µM (CDK4/Cyclin D3 complex) [%] | inhibition at 1 µM (CDK2/Cyclin A complex) [%] | inhibition at 20 µM [2] [%] | inhibition at 20 µM (FL-CHK1) [%] | also measured
COc1cccc(C(=O)Nc2cc(-c3csc(-c4sc(NC(=O)NCCc5ccncc5)nc4N)n3)c(F)cc2F)c1 [O(30), N-(5-{4′-Amino-2′-[3-(2-pyridin-4-yl-ethyl)-ureido]-[2,5′]bithiazolyl-4-yl}-2,4-difluoro-phenyl)-3-methoxy-benzamide] | – | – | – | – | inhibition at 0.05 µM [1]: 39%
COc1cccc(C(=O)Nc2cc(-c3csc(-c4sc(NC(=O)NC[C@H]5CCCO5)nc4N)n3)c(F)cc2F)c1 [O(24), N-[5-(4′-Amino-2′-{3-[(R)-1-(tetrahydro-furan-2-yl)methyl]-ureido}-[2,5′]bithiazolyl-4-yl)-2,4-difluoro-phenyl]-3-methoxy-benzamide] | – | – | – | – | inhibition at 0.05 µM [1]: 22%
CC[C@@H](CO)NC(=O)Nc1nc(N)c(-c2nc(-c3cc(NC(=O)c4cccc(OC)c4)c(F)cc3F)cs2)s1 [O(22), N-(5-{4′-Amino-2′-[3-((S)-1-hydroxymethyl-propyl)-ureido]-[2,5′]bithiazolyl-4-yl}-2,4-difluoro-phenyl)-3-methoxy-benzamide] | – | – | – | – | Ki [1]: 1.5 nM
COc1cccc(C(=O)Nc2cc(-c3csc(-c4sc(NC(=O)NCc5ccccn5)nc4N)n3)c(F)cc2F)c1 [O(16), N-{5-[4′-Amino-2′-(3-pyridin-2-ylmethyl-ureido)-[2,5′]bithiazolyl-4-yl]-2,4-difluoro-phenyl}-3-methoxy-benzamide] | – | – | – | – | inhibition at 0.05 µM [1]: 11%
Cc1ccc(NC(=O)OC(C)(C)C)cc1-c1noc(-c2sc(Nc3ccc4nc[nH]c4c3)nc2N)n1 [B(24)] | – | – | – | – | Ki [1]: 2.1 nM
COc1cccc(C(=O)Nc2cc(-c3noc(-c4sc(NC(=O)NCc5ccccn5)nc4N)n3)c(F)cc2F)c1 [O(8), N-(5-{5-[4-Amino-2-(3-pyridin-2-ylmethyl-ureido)-thiazol-5-yl]-[1,2,4]oxadiazol-3-yl}-2,4-difluoro-phenyl)-3-methoxy-benzamide] | – | – | – | – | Ki [1]: 0.21 nM
Cc1cc(-c2csc(-c3sc(Nc4ccc(S(N)(=O)=O)cc4)nc3N)n2)ccc1Cl | -28 | 8.3 | 2 | 15.9 | –
COc1cc(OC)c(-c2csc(-c3sc(Nc4ccc(C(C)C)cc4)nc3N)n2)c(O)c1Cl | 72.8 | 31.8 | 51 | 38.9 | –
Nc1nc(Nc2ccc(S(N)(=O)=O)cc2)sc1-c1nc(-c2ccc(O)c(O)c2)cs1 | 57.2 | 55.9 | 49 | 28.5 | –
Cc1c(-c2csc(-c3sc(Nc4ccc(C(C)C)cc4)nc3N)n2)sc2ccccc12 | 2.4 | 4 | 5 | -4.7 | –
Nc1nc(Nc2ccc(S(N)(=O)=O)cc2)sc1-c1nc(-c2ccc(Cl)c([N+](=O)[O-])c2)cs1 | -28.2 | 17.6 | -2 | 13.1 | –
CN(C)c1ccc(Nc2nc(N)c(-c3nc(-c4ccc5c(c4)CCC(=O)N5)cs3)s2)cc1 | 43.7 | -2.5 | 20 | 32.7 | –
CN(C)c1ccc(Nc2nc(N)c(-c3nc(-c4cc(Br)c(Cl)s4)cs3)s2)cc1 | 69.1 | 17.6 | 18 | 22.8 | –
CN(C)c1ccc(Nc2nc(N)c(-c3nc(-c4ccc5c(c4)OCCO5)cs3)s2)cc1 | 56.5 | 5 | 16 | 40.8 | –
Nc1nc(Nc2ccc(S(N)(=O)=O)cc2)sc1-c1nc(-c2cccc(OC(=O)c3ccccc3)c2)cs1 | -1.9 | 37.2 | 43 | 6.8 | –
CN(C)c1ccc(Nc2nc(N)c(-c3nc(-c4ccc(O)cc4)cs3)s2)cc1 | 66.8 | 26.6 | 46 | 47.1 | –
COc1ccc(OC)c(-c2csc(-c3sc(Nc4ccc(S(N)(=O)=O)cc4)nc3N)n2)c1 | 41.2 | 28.4 | 8 | -2.3 | –
CC(C)c1ccc(Nc2nc(N)c(-c3nc(-c4cccc(OC(=O)c5ccccc5)c4)cs3)s2)cc1 | 48 | 21.7 | 5 | 8.8 | –
CC(=O)Oc1ccccc1-c1csc(-c2sc(Nc3ccc(C(C)C)cc3)nc2N)n1 | 44.3 | 6.6 | 14 | -12.8 | –
CN(C)c1ccc(Nc2nc(N)c(-c3nc(-c4ccc(-c5ccc(Cl)cc5Cl)o4)cs3)s2)cc1 | 35.6 | 17.7 | 5 | -7.6 | –
CN(C)c1ccc(Nc2nc(N)c(-c3nc(-c4cc(-c5ccccc5)no4)cs3)s2)cc1 | 29.6 | 24 | 5 | 0.8 | –
Nc1nc(Nc2ccc(S(N)(=O)=O)cc2)sc1-c1nc(-c2cc3cc(Cl)ccc3o2)cs1 | -15 | 16.6 | -4 | 13.6 | –
CC(=O)Oc1ccccc1-c1csc(-c2sc(Nc3ccc(N(C)C)cc3)nc2N)n1 | 48.5 | 27.8 | 24 | -4.6 | –
COc1ccc(-c2csc(-c3sc(Nc4ccc(N(C)C)cc4)nc3N)n2)cc1 [drawing 551] | – | – | – | – | CDK4 % Inhibition at 1.0 μM (CDK4/Cyclin D3 complex): 83%; CDK2 % Inhibition at 1.0 μM (CDK2/Cyclin A complex): 29.8%; VEGF % inhibition at 20 μM ([2]; 20 μM): 23%; CHK1 % Inhibition at 20 μM (FL-CHK1): 34.8%
Nc1nc(Nc2ccc(S(N)(=O)=O)cc2)sc1-c1nc(-c2ccc[nH]2)cs1 | 39.7 | 14.6 | 13 | 13.6 | –
Cc1c(-c2csc(-c3sc(Nc4ccc(N(C)C)cc4)nc3N)n2)sc2ccccc12 | 12.1 | 23.3 | 26 | 3.2 | –
